Source: PubChem BioAssay AID248 (DTP/NCI, 2004)
Where “and” joins values, the source holds several entries; their conditions need not be identical. Equal entries are not always repeated. Inconclusive results and toxic doses are left out. Cut-off read from the data, not from the text of the source: active = T/C of 150% or more; inactive = T/C below 125%.

Test system: L1210 leukemia ip in BDF1 mice, survival T/C
Assay: NCI In Vivo Anticancer Drug Screen. Data for tumor model L1210 Leukemia (intraperitoneal) in B6D2F1 (BDF1) mice
Conditions: endpoint: mean survival time, higher = longer survival
How it was run: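 Antitumor effect is assessed in tumor-bearing animals. Survival in the compound arm is compared with a vehicle-dosed control arm and expressed as their quotient.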

[1] = dose: 100.0 mg/kg/injection, schedule: Q01DX009 (ip), vehicle: saline
[2] = dose: 100.0 mg/kg/injection, schedule: Q04DX003 (ip), vehicle: saline
[3] = dose: 200.0 mg/kg/injection, schedule: Q04DX003 (ip), vehicle: saline
[4] = dose: 100.0 mg/kg/injection, schedule: Q04DX002 (ip), vehicle: Klucel (hydroxypropylcellulose) (HPC)
[5] = dose: 200.0 mg/kg/injection, schedule: Q04DX002 (ip), vehicle: Klucel (hydroxypropylcellulose) (HPC)
[6] = dose: 400.0 mg/kg/injection, schedule: Q04DX002 (ip), vehicle: Klucel (hydroxypropylcellulose) (HPC)
[7] = dose: 50.0 mg/kg/injection, schedule: Q01DX009 (ip), vehicle: saline with Tween-80
[8] = dose: 100.0 mg/kg/injection, schedule: Q01DX009 (ip), vehicle: saline with Tween-80
[9] = dose: 200.0 mg/kg/injection, schedule: Q01DX009 (ip), vehicle: saline with Tween-80
[10] = dose: 400.0 mg/kg/injection, schedule: Q04DX003 (ip), vehicle: saline
[11] = dose: 100.0 mg/kg/injection, schedule: Q04DX002 (ip), vehicle: saline with Tween-80
[12] = dose: 200.0 mg/kg/injection, schedule: Q04DX002 (ip), vehicle: saline with Tween-80
[13] = dose: 400.0 mg/kg/injection, schedule: Q04DX002 (ip), vehicle: saline with Tween-80
[14] = dose: 12.5 mg/kg/injection, schedule: Q01DX009 (ip), vehicle: Klucel (hydroxypropylcellulose) (HPC)
[15] = dose: 12.5 mg/kg/injection, schedule: Q04DX003 (ip), vehicle: Klucel (hydroxypropylcellulose) (HPC)
[16] = dose: 25.0 mg/kg/injection, schedule: Q01DX009 (ip), vehicle: Klucel (hydroxypropylcellulose) (HPC)
[17] = dose: 25.0 mg/kg/injection, schedule: Q04DX003 (ip), vehicle: Klucel (hydroxypropylcellulose) (HPC)
[18] = dose: 50.0 mg/kg/injection, schedule: Q04DX003 (ip), vehicle: Klucel (hydroxypropylcellulose) (HPC)
[19] = dose: 50.0 mg/kg/injection, schedule: Q04DX003 (ip), vehicle: saline with Tween-80
[20] = dose: 100.0 mg/kg/injection, schedule: Q04DX003 (ip), vehicle: saline with Tween-80

Measured: T/C

CC(=O)NCC1(c2ccccc2)CCN(CCCC(=O)c2ccc(F)cc2)CC1
inactive: dose: 1.56 mg/kg/injection, schedule: Q03HX024 (ip), vehicle: saline 94 % of control | dose: 3.12 mg/kg/injection, schedule: Q03HX024 (ip), vehicle: saline 98 % of control | dose: 4.1 mg/kg/injection, schedule: Q01DX009 (ip), vehicle: saline 96 % of control | dose: 6.25 mg/kg/injection, schedule: Q01DX009 (ip), vehicle: saline 98 % of control | dose: 8.2 mg/kg/injection, schedule: Q01DX009 (ip), vehicle: saline 96 % of control | dose: 12.5 mg/kg/injection, schedule: Q01DX009 (ip), vehicle: saline 102 % of control | dose: 12.5 mg/kg/injection, schedule: Q04DX003 (ip), vehicle: saline 100 % of control | dose: 16.5 mg/kg/injection, schedule: Q01DX009 (ip), vehicle: saline 89 % of control | dose: 18.75 mg/kg/injection, schedule: Q01DX001 (ip), vehicle: saline 100 % of control | dose: 25.0 mg/kg/injection, schedule: Q01DX009 (ip), vehicle: saline 96 % of control | dose: 25.0 mg/kg/injection, schedule: Q03HX024 (ip), vehicle: saline 86 % of control | dose: 25.0 mg/kg/injection, schedule: Q04DX003 (ip), vehicle: saline 100 % of control and 101 % of control (2×) | dose: 33.0 mg/kg/injection, schedule: Q01DX009 (ip), vehicle: saline 86 % of control | dose: 37.5 mg/kg/injection, schedule: Q01DX001 (ip), vehicle: saline 96 % of control | dose: 50.0 mg/kg/injection, schedule: Q01DX009 (ip), vehicle: saline 109 % of control | dose: 50.0 mg/kg/injection, schedule: Q04DX003 (ip), vehicle: saline 101 % of control and 108 % of control and 118 % of control | dose: 66.0 mg/kg/injection, schedule: Q01DX009 (ip), vehicle: saline 91 % of control | dose: 75.0 mg/kg/injection, schedule: Q01DX001 (ip), vehicle: saline 96 % of control | [1] 107 % of control | [2] 103 % of control | dose: 150.0 mg/kg/injection, schedule: Q01DX001 (ip), vehicle: saline 91 % of control | [3] 113 % of control

Cc1c(Cl)ccc2c1S(=O)(=O)c1cccc(Cl)c1-2
inactive: [4] 104 % of control | [5] 96 % of control | [6] 100 % of control

C=C1C(C)=NN=C2C=CN(C(=O)CI)N12
inactive: dose: 100.0 mg/kg/injection, schedule: Q01DX001 (ip), vehicle: saline 109 % of control | dose: 200.0 mg/kg/injection, schedule: Q01DX001 (ip), vehicle: saline 106 % of control | dose: 400.0 mg/kg/injection, schedule: Q01DX001 (ip), vehicle: saline 106 % of control

CCOC(=O)Cn1c(C(F)(F)F)nc2nc(Cl)c(Cl)nc21
inactive: [7] 97 % of control | [8] 108 % of control | [9] 97 % of control

c1ccc(C(=C(c2ccccc2)c2ccccc2)c2ccccc2)cc1
inactive: dose: 100.0 mg/kg/injection, schedule: Q01DX009 (ip), vehicle: Klucel (hydroxypropylcellulose) (HPC) 99 % of control | dose: 100.0 mg/kg/injection, schedule: Q04DX003 (ip), vehicle: Klucel (hydroxypropylcellulose) (HPC) 97 % of control | dose: 200.0 mg/kg/injection, schedule: Q01DX009 (ip), vehicle: Klucel (hydroxypropylcellulose) (HPC) 94 % of control | dose: 200.0 mg/kg/injection, schedule: Q04DX003 (ip), vehicle: Klucel (hydroxypropylcellulose) (HPC) 97 % of control | dose: 400.0 mg/kg/injection, schedule: Q01DX009 (ip), vehicle: Klucel (hydroxypropylcellulose) (HPC) 92 % of control | dose: 400.0 mg/kg/injection, schedule: Q04DX003 (ip), vehicle: Klucel (hydroxypropylcellulose) (HPC) 96 % of control

CCCCCCC(O)CO (stereo unspecified)
inactive: [2] 105 % of control | [3] 112 % of control | [10] 109 % of control

CCOC(=O)C1(C)Nc2ccc3ccccc3c2NC1=O (stereo unspecified)
inactive: [4] 93 % of control | [5] 101 % of control | [6] 101 % of control

CCN(CC)c1ccc(N=Nc2c(C)nc(N)nc2-c2ccccc2)cc1
inactive: dose: 5.0 mg/kg/injection, schedule: Q01DX001 (ip), vehicle: saline 103 % of control | dose: 10.0 mg/kg/injection, schedule: Q01DX001 (ip), vehicle: saline 96 % of control | dose: 20.0 mg/kg/injection, schedule: Q01DX001 (ip), vehicle: saline 91 % of control | dose: 40.0 mg/kg/injection, schedule: Q01DX001 (ip), vehicle: saline 92 % of control | dose: 80.0 mg/kg/injection, schedule: Q01DX001 (ip), vehicle: saline 87 % of control

O=C(C1CCC2c3ccccc3CCC2C1C(=O)N1CCCCC1)N1CCCCC1 (stereo unspecified)
inactive: dose: 50.0 mg/kg/injection, schedule: Q01DX001 (ip), vehicle: carboxymethylcellulose (CMC) 103 % of control | dose: 100.0 mg/kg/injection, schedule: Q01DX001 (ip), vehicle: carboxymethylcellulose (CMC) 101 % of control | dose: 200.0 mg/kg/injection, schedule: Q01DX001 (ip), vehicle: carboxymethylcellulose (CMC) 108 % of control

CCC[CH2][Sn](=[O])[OH]
inactive: [11] 91 % of control | [12] 91 % of control | [13] 94 % of control

O=C1c2ccccc2C(=O)c2c(Nc3cccc(S(=O)(=O)N(CCO)CCO)c3)ccc(O)c21
inactive: [7] 97 % of control | [8] 97 % of control | [9] 97 % of control

CCN1CCN(Cc2ccccc2)C(CCl)C1 (stereo unspecified)
inactive: [14] 96 % of control | [15] 100 % of control | [16] 102 % of control | [17] 96 % of control | [18] 93 % of control

COc1ccc(/C=C/c2cccc[n+]2C)cc1
inactive: [14] 89 % of control | [15] 100 % of control | [16] 90 % of control | [17] 94 % of control | [18] 100 % of control

CN1CCC(O)(C#N)CC1
inactive: dose: 7.5 mg/kg/injection, schedule: Q01DX001 (ip), vehicle: saline 101 % of control | dose: 15.0 mg/kg/injection, schedule: Q01DX001 (ip), vehicle: saline 106 % of control

Nc1ccc(CS(=O)(=O)O)cc1
inactive: [1] 112 % of control | dose: 200.0 mg/kg/injection, schedule: Q01DX009 (ip), vehicle: saline 101 % of control | dose: 400.0 mg/kg/injection, schedule: Q01DX009 (ip), vehicle: saline 101 % of control

NC(=O)CN1C(=O)C2C3CCC(O3)C2C1=O (stereo unspecified)
inactive: dose: 25.0 mg/kg/injection, schedule: Q04DX003 (ip), vehicle: saline with Tween-80 89 % of control | [19] 89 % of control | [20] 96 % of control | [2] 107 % of control | [10] 95 % of control

N#Cc1c(/N=C/c2ccccc2Cl)sc2c1CCC2
inactive: [11] 91 % of control | [12] 105 % of control | [13] 91 % of control

COC(=O)c1ccc(CBr)cc1
inactive: dose: 25.0 mg/kg/injection, schedule: Q01DX009 (ip), vehicle: saline with Tween-80 97 % of control | [7] 90 % of control | [19] 97 % of control | [8] 98 % of control | [20] 96 % of control

CCCCC1(CC)COC(C)(CCc2ccc(OC)cc2)OC1 (stereo unspecified)
inactive: dose: 100.0 mg/kg/injection, schedule: Q01DX001 (ip), vehicle: acetone 93 % of control | dose: 200.0 mg/kg/injection, schedule: Q01DX001 (ip), vehicle: acetone 93 % of control | dose: 400.0 mg/kg/injection, schedule: Q01DX001 (ip), vehicle: acetone 90 % of control

NC(N)=Nc1ncnc2nncnc12
inactive: dose: 9.5 mg/kg/injection, schedule: Q01DX001 (ip), vehicle: other 102 % of control | dose: 19.0 mg/kg/injection, schedule: Q01DX001 (ip), vehicle: other 102 % of control | dose: 38.0 mg/kg/injection, schedule: Q01DX001 (ip), vehicle: other 102 % of control
